Measurements from patent publication US9732370B2, “Method for the determination of the presence of an antibiotic in a fluid” (DSM IP ASSETS B.V., priority 2013, dated 2017).

System: test organism of Delvotest SP-NT
Test: Microbial growth inhibition test (DSM Delvotest SP-NT, reference or modified with streptomycin in the test medium): detection limit of antibiotics in spiked milk
Format: cell-based
Settings: for Detection limit: spiked milk, 64° C., cut-off Z-value 0; for Effect of an aminoglycoside antibiotic in the test medium on the sensitivity of the test for the antibiotic: aminoglycoside antibiotic (streptomycin) added to test medium versus reference test
Method: As a reference, a commercially available test system without any added aminoglycoside antibiotic (DSM Delvotest® SP-NT, plates containing 8×12 test wells) was used. In addition, two different test systems were prepared by modifying the reference test by adding the aminoglycoside antibiotic streptomycin to the test medium in a final concentration of 100 ppb or 1000 ppb. The detection limits of four different antibiotics were measured in the reference test and in the tests with modified medium containing different concentrations of streptomycin. The antibiotics that were measured were streptomycin and dihydrostreptomycin (DH-streptomycin) (both belonging to the aminoglycoside antibiotic family), penicillin G (belonging to the beta-lactam antibiotic family), and oxytetracycline (belonging to the tetracycline antibiotic family) Five different concentrations of each antibiotic (see Table 1) were measured. Hundred microliter antibiotic-free milk or hundred microliter milk spiked with the respective concentrations of antibiotic was added to the test medium (170 μl) and incubated at 64° C. in a water bath. The tests were visually determined at the point in time where a sample without antibiotic had changed colour from purple to yellow. At this point, the plates were cooled in an ice bath for 5 minutes. The cooled plates were scanned on a Delvo® scanner. The colour of each well was expressed as a Z-value; a purple colour gives rise to a positive Z-value, while a yellow colour has a negative Z-value. The Z-value of test results with samples without antibiotic is typically […]. Detailed description of the scanning technology and the expression of the colour in Z-values are described in WO 03/033728. For the determination of the detection limit for each antibiotic, a dose-response function (Z-value versus concentration of antibiotic) was constructed. The detection limit is defined as the antibiotic concentration where the S-shaped dose-response function has a Z-value equal to the cut-off value. For Delvotest® SP-NT a cut-off Z-value of 0 was used.

[1] = Streptomycin concentration in test 100 ppb
[2] = Streptomycin concentration in test 1000 ppb
[3] = Streptomycin concentration in test 0 ppb (reference Delvotest SP-NT)

With CN[C@@H]1[C@H](O[C@H]2[C@H](O[C@H]3[C@H](O)[C@@H](O)[C@H](NC(=N)N)[C@@H](O)[C@@H]3NC(=N)N)O[C@@H](C)[C@]2(O)CO)O[C@@H](CO)[C@H](O)[C@H]1O [DH-streptomycin, dihydrostreptomycin] the Detection limit [1] was 982 ppb, the Detection limit [2] was 445 ppb and the “Effect of an aminoglycoside antibiotic in the test medium on the sensitivity of the test for the antibiotic” value (shortened to “Effect of an aminoglycoside antibiotic”) was “increases”.
In the case of CN(C)[C@@H]1C(O)=C(C(N)=O)C(=O)[C@@]2(O)C(O)=C3C(=O)c4c(O)cccc4[C@@](C)(O)[C@H]3[C@H](O)[C@@H]12 [Oxytetracycline, oxytetracycline], the Detection limit [3] is reported as 264 ppb, the Detection limit [1] is reported as 239 ppb and the Detection limit [2] is reported as 343 ppb. The “Effect of an aminoglycoside antibiotic” value was “no effect”.
CC1(C)S[C@@H]2[C@H](NC(=O)Cc3ccccc3)C(=O)N2[C@H]1C(=O)O [Penicillin G, penicillin G] gave a Detection limit [3] of 1.04 ppb, a Detection limit [1] of 0.95 ppb and a Detection limit [2] of 1.07 ppb. For the same compound, the “Effect of an aminoglycoside antibiotic” value was “no effect”.
[H]/N=C(/N)N[C@H]1[C@H](O)[C@@H](O)[C@H](O[C@@H]2O[C@@H](C)[C@](O)(C=O)[C@H]2O[C@@H]2O[C@@H](CO)[C@H](O)[C@@H](O)[C@@H]2NC)[C@@H](N/C(N)=N\[H])[C@@H]1O [Streptomycin, streptomycin] was tested, and the Detection limit [1] was 1186 ppb, the Detection limit [2] was 676 ppb and the “Effect of an aminoglycoside antibiotic” value was “increases”.
